Data set [1] in a line: Solubility assay (kinetic solubility, PBS pH 7). In kind it is physicochemical. The note with it: read-out: Solubility. The method, boiled down: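 Reference standards were made by diluting the 10 mM stock to 100 µM in acetonitrile:methanol:DMSO 10:80:10. Solubility in µM was calculated as the sample peak area divided by the standard peak area, multiplied by the standard concentration.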

A further data set relates to Ca Ski cell line. An outline of the steps: (§1)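 Compound dilution series (10 points, 3-fold, 10 mM top stock in DMSO) tested on overnight-plated Ca Ski cells in RPMI1640/10% FBS and on blasticidin-selected p53RE-bla HCT-116 cells in McCoy's 5A; read-out was CellTiter-Glo 2.0 luminescence after room-temperature equilibration.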
Data set [2] has as its system CellSensor p53RE-bla HCT-116 Cell Line. The method, boiled down: as §1
The subject of data set [3] is cells transiently transfected with the NanoLuc-HaloTag vector. As to the kind of experiment: in vitro. The note with it: for cell entry EC50: 4 h; for Nanoclick permeability assay % Effect: 4Hr. An outline of the steps: (§2)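 Azido-peptide permeability was read as loss of NanoBRET signal (donor 450 nm, acceptor 610 nm) after adding NanoBret618-azide at 10 μM final.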
Data set [4] deals with p53 responsive β-lactamase reporter in HCT116 cells. As to the kind of experiment: cells. In kind it is cell-based. The method, boiled down: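 HCT116 cells stably carrying a p53-responsive β-lactamase reporter, seeded at 8000 cells/well, with 0.5% DMSO final. Reporter activity read by ToxBLAzer Dual Screen. Values are geometric means of at least three biological replicates.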

The subject of the next data set is HCT116 cells. As to the kind of experiment: Lactate dehydrogenase (LDH) release assay. Type of data set: cell-based. An outline of the steps: (§3)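 HCT116 cells stably carrying a p53-responsive β-lactamase reporter were seeded at 8000 cells per well with a final DMSO level of 0.5%. Membrane integrity was assessed by lactate dehydrogenase release using a homogeneous fluorometric kit. Values are geometric means of at least three biological replicates.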

Data set [5] relates to Jump-In T-REx CHO-K1 BLA cells. As to the kind of experiment: cells. Type of data set: cell-based. The note with it: for EC50: read-out: TETCHO: Counterscreen EC50. (A counterscreen serves to expose hits that act by an unwanted route or on another target.)
Data set [6] in a line: Lactate dehydrogenase (LDH) release assay. In kind it is cell-based. The method, boiled down: as §3
Data set [7] can be described thus: Nanoclick permeability assay. An outline of the steps: as §2
The nature of data set [8]: Experimental LogD (partition coefficient). The note with it: not stated, Partition Coeff LogD.
[9] abbreviates: read-out: Cell EC50 (16 hr, 10% FBS), p53 reporter assay, 16 hr, 10% FBS.
Where [10] appears, read: 0% FBS 4Hr, read-out: p53 reporter assay EC50.
The mark [11] stands for this setting: 0% FBS 4Hr, read-out: LDH: Cytotoxicity assay EC50.
Setting [12] is: 10% FBS 16Hr, read-out: LDH: Cytotoxicity assay EC50.
Setting [13] is: pH 7, aqueous buffer, kinetic from dmso stock, pH 7, PBS.

The results in this text go back to paper PMC10786919, “Design-rules for stapled peptides with in vivo activity and their application to Mdm2/X antagonists” (Nature Communications, 2024).

By logD is commonly meant lipophilicity at a set pH, counting ionised and neutral species. A higher logD goes with a more lipophilic compound.

Values after ≈ are worked out from the molar mass of the structure shown. Read-outs that look alike come from different tables or passages of the source. Positions of bridges follow the written chain, without caps; N, C: chain ends. Non-standard residues stand in square brackets, D forms with d. Residues, ends and D or L forms follow the SMILES beside them. Lys(N3) = [N-]=[N+]=NCCCC[C@H](N)C(=O)O; R8 = C=CCCCCCC[C@@](C)(N)C(=O)O; Cba = N[C@@H](CC1CCC1)C(=O)O; S5 = C=CCCC[C@](C)(N)C(=O)O; βAla = NCCC(=O)O

For the molecule `CC(=O)N[C@@H](CCCCN=[N+]=[N-])C(=O)NCCC(=O)N[C@@H](CC(C)C)C(=O)N[C@H](C(=O)N[C@@H](Cc1ccccc1)C(=O)N[C@]1(C)CCCCCCC=CCCC[C@@](C)(C(=O)N2CCC[C@H]2C(=O)N2CCC[C@H]2C(=O)N2CCC[C@H]2C(=O)N2CCC[C@H]2C(=O)N2CCC[C@H]2C(=O)N2CCC[C@H]2C(N)=O)NC(=O)[C@H](CC2CCC2)NC(=O)[C@H](CCC(N)=O)NC(=O)[C@H](C)NC(=O)[C@H](Cc2c[nH]c3ccccc23)NC(=O)[C@H](Cc2ccc(O)cc2)NC(=O)[C@H](CCC(=O)O)NC1=O)[C@@H](C)O` [MP-094], the solubility kinetic in data set [1] (pH 7) was determined as 158 µM (≈ 367 µg/mL). The values for the EC50 (with Ca Ski cell line (72 h); in data set [2] (72 h)) were over 49.8 µM and 1.33 µM, respectively. Besides, in [3], the cell entry EC50 worked out at 0.942 µM.

Take `CC(=O)N[C@@H](CCCCN=[N+]=[N-])C(=O)NCCC(=O)N[C@@H](CC(C)C)C(=O)N[C@H](C(=O)N[C@@H](Cc1ccccc1)C(=O)N[C@]1(C)CCCCCCC=CCCC[C@@](C)(C(=O)N[C@@H](C)C(=O)N[C@@H](C)C(=O)N[C@@H](C)C(=O)N[C@@H](C)C(=O)N[C@@H](C)C(=O)N[C@@H](C)C(=O)N[C@@H](C)C(N)=O)NC(=O)[C@H](CC2CCC2)NC(=O)[C@H](CCC(N)=O)NC(=O)[C@H](C)NC(=O)[C@H](Cc2c[nH]c3ccccc23)NC(=O)[C@H](Cc2ccc(O)cc2)NC(=O)[C@H](CCC(=O)O)NC1=O)[C@@H](C)O` [MP-471]: the EC50 amounted to 26.7 µM in the data set with Ca Ski cell line (72 h) and 10.7 µM in data set [2] (72 h). In addition, in [3], the cell entry EC50 stood at 1.35 µM.

Regarding `CC(=O)N[C@@H](CCCCN=[N+]=[N-])C(=O)NCCC(=O)N[C@@H](CC(C)C)C(=O)N[C@H](C(=O)N[C@@H](Cc1ccccc1)C(=O)N[C@]1(C)CCCCCCC=CCCC[C@@](C)(C(=O)N[C@@H](CCC(=O)O)C(=O)N[C@@H](C)C(=O)N[C@@H](C)C(=O)N[C@@H](C)C(=O)N[C@@H](C)C(=O)N[C@H](C)C(N)=O)NC(=O)[C@H](CC2CCC2)NC(=O)[C@H](CCC(N)=O)NC(=O)[C@H](C)NC(=O)[C@H](Cc2c[nH]c3ccccc23)NC(=O)[C@H](Cc2ccc(O)cc2)NC(=O)[C@H](CCC(=O)O)NC1=O)[C@@H](C)O` [MP-834, Ac-K(N3)-(betaAla)-LTF-(R8)-EYWAQ-(Cba)-(S5)-EAAAA-(D-Ala)-NH2] (Ac-[Lys(N3)][βAla]LTF[R8]EYWAQ[Cba][S5]EAAAA[dA]-NH2; staple 6-13), the “p53 reporter assay % Effect” value was determined as 103.2% in [4] (0% FBS 4Hr) and 95.7% in data set [4] (10% FBS 16Hr). Moreover, the EC50 in data set [4] (read-out: Cell EC50 (4 hr, 0% FBS), p53 reporter assay, 4 hr, 0% FBS) is 1 µM; in [4] (setting [9]), 3.4 µM; with Ca Ski cell line (read-out: Proliferation EC50 Ca Ski (Off-target), Ca Ski), over 49.8 µM; in data set [2] (read-out: Proliferation EC50 HCT116 (On-target), HCT116), 1.4 µM. In addition, the results for the “LDH: Cytotoxicity assay % Effect” value with HCT116 cells (0% FBS 4Hr) and with HCT116 cells (10% FBS 16Hr) were 6.58% and 9.756%, respectively. Further, the “TETCHO: Counterscreen % Effect” value in data set [5] (0% FBS 4Hr) is recorded as -4.911%; in data set [5] (0% FBS 16Hr), -7.249%; in [5] (10% FBS 16Hr) it was -13.19%. Besides, the solubility kinetic in [1] is 167 µM (≈ 372 µg/mL). The “Proliferation % inhibition at 50 µM Ca Ski” value with Ca Ski cell line (Ca Ski, 50 µM) is given as -3.2%. Besides, in data set [3], the “Nanoclick permeability assay % Effect” value was found to be 121.4%.

With `CC(=O)N[C@@H](CCCCN=[N+]=[N-])C(=O)NCCC(=O)N[C@@H](CC(C)C)C(=O)N[C@H](C(=O)N[C@@H](Cc1ccccc1)C(=O)N[C@]1(C)CCCCCCC=CCCC[C@@](C)(C(=O)N[C@@H](C)C(=O)N[C@@H](CCC(=O)O)C(=O)N[C@@H](C)C(=O)N[C@@H](C)C(=O)N[C@@H](C)C(=O)N[C@H](C)C(N)=O)NC(=O)[C@H](CC2CCC2)NC(=O)[C@H](CCC(N)=O)NC(=O)[C@H](C)NC(=O)[C@H](Cc2c[nH]c3ccccc23)NC(=O)[C@H](Cc2ccc(O)cc2)NC(=O)[C@H](CCC(=O)O)NC1=O)[C@@H](C)O` [MP-965, AZIDE-ATSP-7041 (E5A,S12A)] (Ac-[Lys(N3)][βAla]LTF[R8]EYWAQ[Cba][S5]AEAAA[dA]-NH2; staple 6-13), the “p53 reporter assay % Effect” value turned out to be 97.76% in data set [4] (0% FBS 4Hr) and 86.7% in data set [4] (10% FBS 16Hr). The EC50 in data set [4] (setting [10]) is 1.11 µM; in data set [4] (setting [9]), 2.2 µM; in [6] (setting [11]), over 50.7 µM; in data set [6] (setting [12]), over 50.7 µM; in data set [5] (0% FBS 4Hr), over 50.4 µM; in data set [5] (10% FBS 16Hr), over 50.4 µM. Besides, the entries for the “LDH: Cytotoxicity assay % Effect” value with HCT116 cells (0% FBS 4Hr) and with HCT116 cells (10% FBS 16Hr) were -4.408% and 5.517%, respectively. The “TETCHO: Counterscreen % Effect” value in [5] (0% FBS 4Hr) is -2.385%; in [5] (10% FBS 16Hr), -17.5%. Also, in data set [1] (setting [13]), the solubility kinetic amounted to 161 µM (≈ 358 µg/mL). Besides, the cell entry EC50 in [7] amounted to 0.581 µM. Further, the “Nanoclick permeability assay % Effect” value in data set [3] was found to be 110.3%. In [8], this molecule showed a logD of 2.69.

On to `CC(=O)N[C@@H](CCCCN=[N+]=[N-])C(=O)NCCC(=O)N[C@@H](CC(C)C)C(=O)N[C@H](C(=O)N[C@@H](Cc1ccccc1)C(=O)N[C@]1(C)CCCCCCC=CCCC[C@@](C)(C(=O)N[C@@H](C)C(=O)N[C@@H](CC(N)=O)C(=O)N[C@@H](C)C(=O)N[C@@H](C)C(=O)N[C@@H](C)C(=O)N[C@H](C)C(N)=O)NC(=O)[C@H](CC2CCC2)NC(=O)[C@H](CCC(N)=O)NC(=O)[C@H](C)NC(=O)[C@H](Cc2c[nH]c3ccccc23)NC(=O)[C@H](Cc2ccc(O)cc2)NC(=O)[C@H](CCC(=O)O)NC1=O)[C@@H](C)O` [MP-967, AZIDE-KK-ATSP-7041 (L1A,T2A,E5A,Q9A,S12A)] (Ac-[Lys(N3)][βAla]LTF[R8]EYWAQ[Cba][S5]ANAAA[dA]-NH2; staple 6-13), for which the “p53 reporter assay % Effect” value was 98.42% in data set [4] (0% FBS 4Hr) and 97.47% in data set [4] (10% FBS 16Hr). Besides, the EC50 in data set [4] (setting [10]) was 0.524 µM; in [4] (10% FBS 16Hr, read-out: p53 reporter assay EC50) it was 0.937 µM; in data set [6] (setting [11]) it was over 50.7 µM; in data set [6] (setting [12]), over 50.7 µM; in data set [5] (0% FBS 4Hr), over 50.4 µM; in [5] (10% FBS 16Hr), over 50.4 µM. Further, the “LDH: Cytotoxicity assay % Effect” value in the data set on HCT116 cells (0% FBS 4Hr) came to 5.243%; with HCT116 cells (10% FBS 16Hr) it was 11.93%. Also, the “TETCHO: Counterscreen % Effect” value in data set [5] (0% FBS 4Hr) is given as -0.6324%; in data set [5] (10% FBS 16Hr), -28.5%. Besides, in [1] (setting [13]), the solubility kinetic is 161 µM (≈ 356 µg/mL). Moreover, the cell entry EC50 in data set [7] worked out at 3.89 µM. The “Nanoclick permeability assay % Effect” value in data set [3] was 137.2%. This molecule yielded a logD in data set [8] of 3.08.

In the case of `CC(=O)N[C@@H](CCCCN=[N+]=[N-])C(=O)NCCC(=O)N[C@@H](CC(C)C)C(=O)N[C@H](C(=O)N[C@@H](CO)C(=O)N[C@]1(C)CCCCCCC=CCCC[C@@](C)(C(=O)N[C@@H](CO)C(=O)N[C@@H](C)C(=O)N[C@@H](C)C(N)=O)NC(=O)[C@H](CO)NC(=O)[C@H](CCC(N)=O)NC(=O)[C@H](C)NC(=O)[C@H](CO)NC(=O)[C@H](Cc2ccc(O)cc2)NC(=O)[C@H](CCC(=O)O)NC1=O)[C@@H](C)O` [MP-3352] (Ac-[Lys(N3)][βAla]LTS[R8]EYSAQS[S5]SAA-NH2; staple 6-13), the EC50 in data set [4] (0% FBS 4Hr, read-out: p53 reporter assay: EC50) was over 50.6 µM; in data set [6] (LDH: Cytotoxicity assay: EC50) it was over 50.6 µM; in data set [5] (0% FBS 4Hr) it was over 50.6 µM. In addition, the “LDH: Cytotoxicity assay: % Effect” value in the data set on HCT116 cells is given as -2.39%. Also, the “TETCHO: Counterscreen % Effect” value in data set [5] (0% FBS 4Hr) is on record as 0.41%. The solubility kinetic in data set [1] (setting [13]) stood at 28 µM (≈ 49.6 µg/mL). In addition, the cell entry EC50 in [7] (Nanoclick permeability assay EC50) turned out to be 8.79 µM. For the same molecule, the “Nanoclick permeability assay % Effect” value in data set [3] stood at 36.66%. Moreover, in “physchem”, the EPSA came to 197 A^2. Besides, in data set [8], the logD came to 1.55.
